Here are results for one molecule from patent US20170281779A1, “METHOD OF TREATING PATIENTS NON-RESPONSIVE TO PALONOSETRON” (Heron Therapeutics, Inc., priority 2013, published 2017).

For series [1], the system named is chemotherapy-induced nausea and vomiting (CINV). The experiment in a line: Clinical study of complete response (absence of emetic episodes) in chemotherapy patients; Cycle 1 palonosetron, Cycle 2 granisetron semi-solid delivery vehicle. Format: in vivo, human. The settings on record: Cycle 1, palonosetron 0.25 mg intravenous. The protocol:
As described in Example 2, the patients in the study were undergoing either a moderately emetogenic chemotherapy regimen or a highly emetogenic chemotherapy regimen. In a first cycle of the study, the patients were treated with (i) 5 mg of granisetron in a semi-solid drug delivery vehicle, administered subcutaneously; (ii) 10 mg of granisetron in a semi-solid drug delivery vehicle, administered subcutaneously; or (iii) palonosetron, 0.25 mg administered intravenously. Patients who received palonosetron in Cycle 1 and remained on study were re-randomized for treatment with 5 mg or 10 mg of granisetron, administered as comprised within a semi-solid drug delivery vehicle via subcutaneous injection of 250 mg vehicle or 500 mg vehicle.
In Cycle 1 of the study, 1395 patients receiving single doses of a moderately emetogenic chemotherapy (MEC) regimen or a highly emetogenic chemotherapy (HEC) regimen were randomized for treatment with one of three regimens: a semi-solid drug delivery vehicle comprising granisetron, administered subcutaneously to provide (i) 5 mg granisetron or (ii) 10 mg granisetron (via subcutaneous injection of 250 mg or 500 mg vehicle, respectively) or (iii) palonosetron, 0.25 mg intravenous. The palonosetron dose administered was the recommended dose of palonosetron (ALOXI®) for treatment of chemotherapy-induced nausea and vomiting in adults. Palonosetron, when administered intravenously at the above-dose, is indicated in adults for the prevention of both acute and delayed vomiting associated with initial and repeated courses of moderately emetogenic chemotherapy, and acute nausea and vomiting associated with initial and repeat courses of highly emetogenic chemotherapy.
Patients who received palonosetron in Cycle 1 and remained in the study were re-randomized for treatment in Cycle 2 with 5 mg or 10 mg granisetron administered subcutaneously as 250 mg or 500 mg, respectively, of the semi-solid drug delivery vehicle. […]

Another series addresses T1, 5-HT3 receptors (Homo sapiens, UniProt P46098).
T1 sequence (P46098 24-478): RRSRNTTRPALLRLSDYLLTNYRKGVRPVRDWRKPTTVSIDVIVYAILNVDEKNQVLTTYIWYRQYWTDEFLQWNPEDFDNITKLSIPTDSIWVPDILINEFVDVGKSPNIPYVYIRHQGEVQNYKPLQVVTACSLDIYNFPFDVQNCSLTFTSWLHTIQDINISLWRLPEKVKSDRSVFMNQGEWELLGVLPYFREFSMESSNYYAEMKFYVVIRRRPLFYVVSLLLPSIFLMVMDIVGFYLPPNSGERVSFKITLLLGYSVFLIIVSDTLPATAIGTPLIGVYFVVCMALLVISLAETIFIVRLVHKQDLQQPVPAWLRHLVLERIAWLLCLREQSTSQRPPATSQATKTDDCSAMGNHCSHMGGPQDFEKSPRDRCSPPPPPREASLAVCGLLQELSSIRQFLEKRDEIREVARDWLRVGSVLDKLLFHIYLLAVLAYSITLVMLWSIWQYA
To be noted: compared to first generation 5-HT3 receptor antagonists dolasetron, granisetron and ondansetron; cited from earlier work.

The conditions of series [2]: cited from earlier work.
Where [3] appears, read: compared to first generation 5-HT3 receptor antagonists dolasetron, granisetron and ondansetron.

Molecules are shown by their SMILES.

For `O=C1c2cccc3c2[C@H](CCC3)CN1[C@@H]1CN2CCC1CC2` [palonosetron], the “overall (0-120 hour) failures” value in series [1] (HEC patients (94/238)) came out at 39.5%; in series [1] (MEC patients (100/208)), 48.1%; in series [1] (all 446 patients (MEC + HEC)) it was 43.5%. Also, the “binding affinity to the 5-HT3 receptors” value on 5-HT3 receptors is given as “higher binding affinity”. Further, in series [2] (as reported in the literature (Eisenberg et al. 2004)), the safety profile result is reported as “excellent safety profile”. Moreover, in series [2] (setting [3]), the half-life entry is recorded as “significantly longer half-life”. In series [2] (setting [3]), the potency entry is reported as “higher potency”.
